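Where inhibition never reached the appropriate level, the endpoint shown equals the highest concentration tested. Otherwise, values were interpolated linearly from a five-concentration, 48-hour dose response in 96-well plates. TGI: concentration producing complete growth inhibition.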
Key:
Test in all cases: DTP human tumour cell line panel, 48 h
T-47D breast = tested on: T-47D breast
MCF7 breast = tested on: MCF7 breast
RXF 393 renal = tested on: RXF 393 renal
HOP-92 NSCLC = tested on: HOP-92 NSCLC
786-0 renal = tested on: 786-0 renal
RPMI-8226 leukemia = tested on: RPMI-8226 leukemia
IGROV1 ovarian = tested on: IGROV1 ovarian
SNB-75 CNS = tested on: SNB-75 CNS
HCT-116 colon = tested on: HCT-116 colon
NCI-H522 lung = tested on: NCI-H522 lung
SK-MEL-28 melanoma = tested on: SK-MEL-28 melanoma
CAKI-1 renal = tested on: CAKI-1 renal
MDA-MB-435 = tested on: MDA-MB-435
ACHN renal = tested on: ACHN renal
SF-268 CNS = tested on: SF-268 CNS
PC-3 prostate = tested on: PC-3 prostate
UACC-62 melanoma = tested on: UACC-62 melanoma
MALME-3M melanoma = tested on: MALME-3M melanoma
SN12C renal = tested on: SN12C renal
SW-620 colon = tested on: SW-620 colon
SK-OV-3 ovarian = tested on: SK-OV-3 ovarian
LOX IMVI melanoma = tested on: LOX IMVI melanoma
U251 CNS = tested on: U251 CNS
HCC-2998 colon = tested on: HCC-2998 colon
SK-MEL-2 melanoma = tested on: SK-MEL-2 melanoma
COLO 205 colon = tested on: COLO 205 colon
HL-60(TB) leukemia = tested on: HL-60(TB) leukemia
SF-295 CNS = tested on: SF-295 CNS
SF-539 CNS = tested on: SF-539 CNS
MOLT-4 leukemia = tested on: MOLT-4 leukemia
M14 melanoma = tested on: M14 melanoma
NCI-H460 lung = tested on: NCI-H460 lung
MDA-MB-231 breast = tested on: MDA-MB-231 breast
NCI-H23 lung = tested on: NCI-H23 lung
UO-31 renal = tested on: UO-31 renal
BT-549 breast = tested on: BT-549 breast
NCI-H226 lung = tested on: NCI-H226 lung
UACC-257 melanoma = tested on: UACC-257 melanoma
A498 renal = tested on: A498 renal
EKVX NSCLC = tested on: EKVX NSCLC
OVCAR-8 ovarian = tested on: OVCAR-8 ovarian
MDA-N = tested on: MDA-N
OVCAR-4 ovarian = tested on: OVCAR-4 ovarian
HT29 colon = tested on: HT29 colon
SK-MEL-5 melanoma = tested on: SK-MEL-5 melanoma
DU-145 prostate = tested on: DU-145 prostate
OVCAR-5 ovarian = tested on: OVCAR-5 ovarian
TK-10 renal = tested on: TK-10 renal
K-562 leukemia = tested on: K-562 leukemia
HS 578T breast = tested on: HS 578T breast
SNB-19 CNS = tested on: SNB-19 CNS
CCRF-CEM leukemia = tested on: CCRF-CEM leukemia
HOP-62 NSCLC = tested on: HOP-62 NSCLC
A549 NSCLC = tested on: A549 NSCLC
KM12 colon = tested on: KM12 colon
OVCAR-3 ovarian = tested on: OVCAR-3 ovarian
HCT-15 colon = tested on: HCT-15 colon
NCI/ADR-RES ovarian = tested on: NCI/ADR-RES ovarian

Cc1cccc2c(NCCCN(C)C)c3c([N+](=O)[O-])ccc(C)c3nc12
TGI (T-47D breast): 0.758 µM | TGI (MCF7 breast): 0.173 µM | TGI (RXF 393 renal): 0.19 µM | TGI (HOP-92 NSCLC): 0.416 µM | TGI (786-0 renal): 0.573 µM | TGI (RPMI-8226 leukemia): 3.17 µM | TGI (IGROV1 ovarian): 0.666 µM | TGI (SNB-75 CNS): 0.491 µM | TGI (HCT-116 colon): 0.821 µM | TGI (NCI-H522 lung): 0.12 µM | TGI (SK-MEL-28 melanoma): 5.87 µM | TGI (CAKI-1 renal): 2.61 µM | TGI (MDA-MB-435): 0.492 µM | TGI (ACHN renal): 0.332 µM | TGI (SF-268 CNS): 1.48 µM | TGI (PC-3 prostate): 0.259 µM | TGI (UACC-62 melanoma): 0.284 µM | TGI (MALME-3M melanoma): 0.375 µM | TGI (SN12C renal): 0.948 µM | TGI (SW-620 colon): 6 µM | TGI (SK-OV-3 ovarian): 0.982 µM | TGI (LOX IMVI melanoma): 0.607 µM | TGI (U251 CNS): 0.741 µM | TGI (HCC-2998 colon): < 0.0454 µM | TGI (SK-MEL-2 melanoma): 0.285 µM | TGI (COLO 205 colon): 0.218 µM | TGI (HL-60(TB) leukemia): 1.39 µM | TGI (SF-295 CNS): 0.451 µM | TGI (SF-539 CNS): 1.12 µM | TGI (MOLT-4 leukemia): 1.15 µM | TGI (M14 melanoma): 0.297 µM | TGI (NCI-H460 lung): 0.141 µM | TGI (MDA-MB-231 breast): 0.601 µM | TGI (NCI-H23 lung): 0.16 µM | TGI (UO-31 renal): 0.492 µM | TGI (BT-549 breast): 0.858 µM | TGI (NCI-H226 lung): 0.458 µM | TGI (UACC-257 melanoma): 0.4 µM | TGI (A498 renal): 0.0269 µM | TGI (EKVX NSCLC): 0.36 µM | TGI (OVCAR-8 ovarian): 1.58 µM | TGI (MDA-N): 0.498 µM | TGI (OVCAR-4 ovarian): 0.554 µM | TGI (HT29 colon): 1.39 µM | TGI (SK-MEL-5 melanoma): 0.251 µM | TGI (DU-145 prostate): 0.651 µM | TGI (OVCAR-5 ovarian): 0.744 µM | TGI (TK-10 renal): 0.709 µM | TGI (K-562 leukemia): 3.94 µM | TGI (HS 578T breast): 2.96 µM | TGI (SNB-19 CNS): 2.02 µM | TGI (CCRF-CEM leukemia): > 100 µM | TGI (HOP-62 NSCLC): 0.265 µM | TGI (A549 NSCLC): 0.778 µM | TGI (KM12 colon): 3.23 µM | TGI (OVCAR-3 ovarian): 0.357 µM | TGI (HCT-15 colon): 0.592 µM | TGI (NCI/ADR-RES ovarian): 3.37 µM

CC1CC2(OC2C)C(=O)OC2CCN(C)C/C=C(/COC(=O)C1(C)O)C2=O (stereo not drawn)
TGI (T-47D breast): > 100 µM | TGI (MCF7 breast): > 100 µM | TGI (RXF 393 renal): > 100 µM | TGI (HOP-92 NSCLC): > 100 µM | TGI (786-0 renal): > 100 µM | TGI (RPMI-8226 leukemia): > 100 µM | TGI (IGROV1 ovarian): > 100 µM | TGI (SNB-75 CNS): > 100 µM | TGI (HCT-116 colon): > 100 µM | TGI (NCI-H522 lung): > 100 µM | TGI (SK-MEL-28 melanoma): > 100 µM | TGI (CAKI-1 renal): > 100 µM | TGI (MDA-MB-435): > 100 µM | TGI (ACHN renal): > 100 µM | TGI (SF-268 CNS): > 100 µM | TGI (PC-3 prostate): > 100 µM | TGI (UACC-62 melanoma): > 100 µM | TGI (MALME-3M melanoma): > 100 µM | TGI (SN12C renal): > 100 µM | TGI (SW-620 colon): > 100 µM | TGI (SK-OV-3 ovarian): > 100 µM | TGI (LOX IMVI melanoma): > 100 µM | TGI (U251 CNS): > 100 µM | TGI (HCC-2998 colon): > 100 µM | TGI (SK-MEL-2 melanoma): > 100 µM | TGI (COLO 205 colon): > 100 µM | TGI (HL-60(TB) leukemia): > 100 µM | TGI (SF-295 CNS): > 100 µM | TGI (SF-539 CNS): > 100 µM | TGI (M14 melanoma): > 100 µM | TGI (NCI-H460 lung): > 100 µM | TGI (MDA-MB-231 breast): > 100 µM | TGI (NCI-H23 lung): > 100 µM | TGI (UO-31 renal): > 100 µM | TGI (BT-549 breast): > 100 µM | TGI (UACC-257 melanoma): > 100 µM | TGI (A498 renal): > 100 µM | TGI (EKVX NSCLC): > 100 µM | TGI (OVCAR-8 ovarian): > 100 µM | TGI (MDA-N): > 100 µM | TGI (OVCAR-4 ovarian): > 100 µM | TGI (HT29 colon): > 100 µM | TGI (SK-MEL-5 melanoma): > 100 µM | TGI (DU-145 prostate): > 100 µM | TGI (OVCAR-5 ovarian): > 100 µM | TGI (TK-10 renal): > 100 µM | TGI (K-562 leukemia): > 100 µM | TGI (HS 578T breast): > 100 µM | TGI (SNB-19 CNS): > 100 µM | TGI (CCRF-CEM leukemia): > 100 µM | TGI (HOP-62 NSCLC): > 100 µM | TGI (A549 NSCLC): > 100 µM | TGI (KM12 colon): > 100 µM | TGI (OVCAR-3 ovarian): > 100 µM | TGI (HCT-15 colon): > 100 µM | TGI (NCI/ADR-RES ovarian): > 100 µM

CCSc1n/c(=C\c2ccc(N(C)C)cc2)c2nnnn12
TGI (T-47D breast): > 100 µM | TGI (MCF7 breast): > 100 µM | TGI (RXF 393 renal): > 100 µM | TGI (HOP-92 NSCLC): > 100 µM | TGI (786-0 renal): > 100 µM | TGI (RPMI-8226 leukemia): > 100 µM | TGI (IGROV1 ovarian): > 100 µM | TGI (SNB-75 CNS): > 100 µM | TGI (HCT-116 colon): > 100 µM | TGI (NCI-H522 lung): > 100 µM | TGI (SK-MEL-28 melanoma): > 100 µM | TGI (CAKI-1 renal): > 100 µM | TGI (MDA-MB-435): > 100 µM | TGI (ACHN renal): > 100 µM | TGI (SF-268 CNS): > 100 µM | TGI (PC-3 prostate): > 100 µM | TGI (UACC-62 melanoma): > 100 µM | TGI (MALME-3M melanoma): > 100 µM | TGI (SN12C renal): > 100 µM | TGI (SW-620 colon): > 100 µM | TGI (SK-OV-3 ovarian): > 100 µM | TGI (U251 CNS): > 100 µM | TGI (HCC-2998 colon): > 100 µM | TGI (SK-MEL-2 melanoma): > 100 µM | TGI (COLO 205 colon): > 100 µM | TGI (HL-60(TB) leukemia): > 100 µM | TGI (SF-295 CNS): > 100 µM | TGI (MOLT-4 leukemia): > 100 µM | TGI (M14 melanoma): > 100 µM | TGI (NCI-H460 lung): > 100 µM | TGI (MDA-MB-231 breast): > 100 µM | TGI (NCI-H23 lung): > 100 µM | TGI (BT-549 breast): > 100 µM | TGI (NCI-H226 lung): > 100 µM | TGI (UACC-257 melanoma): > 100 µM | TGI (A498 renal): > 100 µM | TGI (EKVX NSCLC): > 100 µM | TGI (OVCAR-8 ovarian): > 100 µM | TGI (MDA-N): > 100 µM | TGI (OVCAR-4 ovarian): > 100 µM | TGI (HT29 colon): > 100 µM | TGI (SK-MEL-5 melanoma): > 100 µM | TGI (DU-145 prostate): > 100 µM | TGI (OVCAR-5 ovarian): > 100 µM | TGI (TK-10 renal): > 100 µM | TGI (HS 578T breast): > 100 µM | TGI (SNB-19 CNS): > 100 µM | TGI (CCRF-CEM leukemia): > 100 µM | TGI (HOP-62 NSCLC): > 100 µM | TGI (A549 NSCLC): > 100 µM | TGI (KM12 colon): > 100 µM | TGI (OVCAR-3 ovarian): > 100 µM | TGI (HCT-15 colon): > 100 µM | TGI (NCI/ADR-RES ovarian): > 100 µM

Reference: PubChem BioAssay (NCI)
